Measured values from patent US20070259935A1, “CRYSTALLINE FORMS OF LETROZOLE AND PROCESSES FOR MAKING THEM” (priority 2006, published 2007).
Entries after “also recorded” stand apart in the source; their conditions may differ.

Experiments:
[1] = Crystal form conversion on stirring in solvent; assay type: physicochemical
[2] = Relative stability of the crystalline forms (cooling rate observations in toluene); assay type: physicochemical; settings: concluded from slow versus faster cooling in toluene and the conversion observations
From the text: Slow cooling a solution of letrozole in toluene gave mainly Form I, whereas faster cooling a solution in toluene gave Form II.
Indeed, due to the relative instability of Form II, the use of Form II or a mixture of Forms I and II could be liable to conversion during storage to form some or more Form I, respectively. Such a variation in crystalline form is generally undesirable in pharmaceuticals as the different forms can have different properties, e.g. bio-absorption, solubility, degradation, etc. Thus, while the use of either crystalline form in a pharmaceutical composition is contemplated, making the composition from a crystalline letrozole that has an XRPD substantially corresponding to FIG. 1 is preferred.

[3] = Crystal form conversion during annealing; assay type: physicochemical; settings: annealing above 140° C.
[4] = cited from earlier work

conversion of crystalline form when stirred in a solvent for 2 weeks ([1]; stirred in a solvent for 2 weeks)	conversion of crystalline form when stirred in various solvents ([1]; stirred in various solvents)	conversion of crystalline form during annealing [3]	conversion of crystalline form when stirred in ethanol ([1]; stirred in ethanol at room temperature)	Compound	kinetic versus thermodynamic form / relative stability [2]	solubility in dichloromethane ([4]; dichloromethane)	solubility in ethanol ([4]; ethanol)	solubility in water ([4]; water)
does not convert into Form II	does not convert	does not convert		N#Cc1ccc(C(c2ccc(C#N)cc2)n2cncn2)cc1 [Form I, 4,4′-(H-1,2,4-Triazol-1-ylmethylene)dibenzonitrile]	thermodynamically stable form			
		(partially) converted into form I	(partially) converted into Form I	N#Cc1ccc(C(c2ccc(C#N)cc2)n2cncn2)cc1 [Form II, 4,4′-(H-1,2,4-Triazol-1-ylmethylene)dibenzonitrile]	kinetic form; also recorded: generally less stable than the Form I			
				N#Cc1ccc(C(c2ccc(C#N)cc2)n2cncn2)cc1 [Letrozole, 4,4′-(H-1,2,4-Triazol-1-ylmethylene)dibenzonitrile]		freely soluble	slightly	practically insoluble
